Source: ChEMBL document CHEMBL3272085, “Quantitative structure-activity relationships. 2. A mixed approach, based on Hansch and Free-Wilson Analysis” (1976)

Tests used:
Assay type in all cases: functional
Staphylococcus aureus = test: Antimicrobial activity against Staphylococcus aureus
Micrococcus luteus = test: Antimicrobial activity against Sarcina lutea
Bacillus cereus = test: Antimicrobial activity against Bacillus cereus
Enterococcus faecalis = test: Antimicrobial activity against Streptococcus faecalis
Wickerhamomyces anomalus = test: Antimicrobial activity against Hansenula anomala
Bacillus subtilis = test: Antimicrobial activity against Bacillus subtilis

SMILES | log(1/C) (Staphylococcus aureus) | log(1/C) (Micrococcus luteus) | log(1/C) (Bacillus cereus) | log(1/C) (Enterococcus faecalis) | log(1/C) (Wickerhamomyces anomalus) | log(1/C) (Bacillus subtilis)
C=C(C)C(=O)Oc1ccc(Cl)cc1Cl | 3.49 | 3.49 | 3.49 | 3.49 | 3.49 | 3.8
C=C(C)C(=O)Oc1c(Br)c(Br)c(Br)c(Br)c1Br | 5.32 | 3.64 | 3.85 | 3.64 | 3.35 | 5.32
C=C(C)C(=O)Oc1c(Cl)cc(Cl)cc1Cl | 3.76 | 3.24 | 3.76 | 3.76 | 3.46 | 3.76
C=C(C)C(=O)Oc1ccc(Cl)cc1 | 3.12 | 3.25 | 3.25 | 3.25 | 3.25 | 3.25
C=C(C)C(=O)Oc1c(Cl)cc(Cl)c(Cl)c1Cl | 4.97 | 3.32 | 4.45 | 3.97 | 3.45 | 4.67
